Laboratory results from publication PMC11851430, “Workflow for E3 Ligase Ligand Validation for PROTAC Development” (ACS Chemical Biology, 2025).

Legend:
[1] = molecular target: T1, kinase protein levels in MCF-7 cells (Homo sapiens, UniProt P0DPI2); assay: TMT-labeled quantitative proteomics; type: cell-based; conditions: protein GATD3; MCF7; 1 µM; set2
T1 construct: endogenous in cells; host or cells: MCF-7
T1 sequence (P0DPI2 42-268): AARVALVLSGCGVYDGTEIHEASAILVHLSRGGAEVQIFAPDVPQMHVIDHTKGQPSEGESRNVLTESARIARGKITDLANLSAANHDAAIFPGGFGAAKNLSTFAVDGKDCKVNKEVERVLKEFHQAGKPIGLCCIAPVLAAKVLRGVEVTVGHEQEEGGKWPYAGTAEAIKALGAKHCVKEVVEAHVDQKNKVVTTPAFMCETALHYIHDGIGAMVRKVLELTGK

[2] = molecular target: T2, kinase protein levels in MCF-7 cells (Homo sapiens, UniProt A0A0U1RRE5); assay: TMT-labeled quantitative proteomics; type: cell-based; conditions: protein NBDY; MCF7; 1 µM; set2
T2 construct: endogenous in cells; host or cells: MCF-7
T2 sequence (A0A0U1RRE5 1-68): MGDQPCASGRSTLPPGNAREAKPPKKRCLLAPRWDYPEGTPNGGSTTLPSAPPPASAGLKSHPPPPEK

SMILES	P.Value (compound/DMSO) [1]	log2FC (compound/DMSO) [1]	P.Value (compound/DMSO) [2]	log2FC (compound/DMSO) [2]
CC(=O)N[C@H](C(=O)N1C[C@H](O)C[C@H]1C(=O)NCc1ccc(-c2scnc2C)cc1OCCOCCOCCOCCNC(=O)c1cc(Nc2cc(C3CC3)[nH]n2)nc(Nc2ccc(CC#N)cc2)n1)C(C)(C)C [5-b]	0.01692	-0.3786	0.05637	-0.3112
CC(=O)N[C@H](C(=O)N1C[C@H](O)C[C@H]1C(=O)NCc1ccc(-c2scnc2C)cc1OCCOCCOCCOCCOCCC(=O)N1CCN(c2ccc(Nc3ncc(Cl)c(Nc4ccccc4C(N)=O)n3)cc2)CC1)C(C)(C)C [6-e]	0.4778	0.0741	0.09776	0.2849
